Experimental data as given in US6600015B2, “Selective linear peptides with melanocortin-4 receptor (MC4-R) agonist activity” (Hoffmann-La Roche Inc., priority 2000, dated 2003).
Non-standard residues stand in square brackets, D forms with d. Residues, ends and D or L forms follow the SMILES beside them. *: point of attachment. Butyryl = CCCC(=O)*

What was measured:
MC-4 receptor = molecular target: T1, MC-4 receptor (Homo sapiens, UniProt P32245); test: Agonist assay: cAMP response in 293 cells transfected with MC-4 receptor (Biotrak-cAMP SPA); type: cell-based; conditions: cAMP increase, read-out: EC50 for MC4-R agonist activity
T1 construct: expressed in transfected cells; host or cells: 293 cells (293MC4, obtained from Dr. Wei Gu, Millenium)
T1 sequence (P32245 whole entry): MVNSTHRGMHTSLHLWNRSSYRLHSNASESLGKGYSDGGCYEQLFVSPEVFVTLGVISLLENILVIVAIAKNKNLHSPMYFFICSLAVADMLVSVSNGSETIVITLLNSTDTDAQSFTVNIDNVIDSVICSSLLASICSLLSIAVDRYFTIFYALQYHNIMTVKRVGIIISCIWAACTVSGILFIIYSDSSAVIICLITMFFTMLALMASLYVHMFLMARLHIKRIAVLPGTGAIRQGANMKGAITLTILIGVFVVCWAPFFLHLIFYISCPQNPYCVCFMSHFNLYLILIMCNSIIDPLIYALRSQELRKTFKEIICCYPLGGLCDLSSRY
Protocol: Description: 293 cells transfected with either the MC-4 receptor or MC-1 receptor were grown in 96 well plates. The cells were stimulated with either 100 nM NDP-αMSH or screening compounds. Cyclic AMP was extracted from the cells and concentrations were determined using a Biotrak-cAMP SPA assay. Agonists were identified as those compounds causing an increase in cAMP. […] Wei Gu, Millenium) were cultured in 75cm^2flasks in D-MEM supplemented with 10% FCS and 500 μg/ml G418. Cells were trypsinized and split 1:3 into 96 well flat-bottom tissue culture treated plates. Cells were stimulated at confluence (day 2-4). cAMP Response: Compounds serially diluted in 100% DMSO were further diluted 1:200 (2.5 μl compound dilution+500 μl media) in D-MEM containing 10% FBS and 0.1 mM IBMX. For unstimulated cells, 2.5 μl of DMSO was added to 500 μl of media. For NDP-αMSH stimulated cells, 2.5 μl of 20 μM NDP-αMSH in 100% DMSO was added to 500 μl of media (final conc. 100 nM). Final concentration of DMSO in all wells was 0.5%. Note: Each sample was run in duplicate on separate plates Culture medium was removed from confluent 96 well culture plates and replaced with 200 μl of above dilutions into the appropriate wells . The plates were incubated for 1 hr at RT. […] [125I]cAMP binding to the SPA beads was determined by counting each plate for 2 minutes on a Packard TopCount™. […]

MC-1 receptor = molecular target: T2, MC-1 receptor (Homo sapiens, UniProt Q01726); test: Agonist assay: cAMP response in 293 cells transfected with MC-1 receptor (Biotrak-cAMP SPA); type: cell-based; conditions: MC1-R versus MC4-R agonist activity, transfected 293 cells
T2 construct: expressed in transfected cells; host or cells: 293 cells
T2 sequence (Q01726 whole entry): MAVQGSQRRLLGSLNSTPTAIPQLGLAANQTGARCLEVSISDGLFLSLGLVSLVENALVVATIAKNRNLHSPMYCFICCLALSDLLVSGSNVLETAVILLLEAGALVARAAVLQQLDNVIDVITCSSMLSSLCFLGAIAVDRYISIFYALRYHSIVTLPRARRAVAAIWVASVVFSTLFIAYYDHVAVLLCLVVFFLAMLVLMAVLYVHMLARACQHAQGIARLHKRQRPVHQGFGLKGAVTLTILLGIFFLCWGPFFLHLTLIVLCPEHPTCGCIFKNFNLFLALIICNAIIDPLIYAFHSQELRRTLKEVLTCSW
Protocol: Culture medium was removed from confluent 96 well culture plates and replaced with 200 μl of above dilutions into the appropriate wells . The plates were incubated for 1 hr at RT. The media was removed, and the plates were washed 1× with 200^μl well of PBS. CAMP was extracted by the addition of 60 μl 70% ethanol (stored in the refrigerator). […]
cAMP Assay: The extracted samples and all reagents included in the kit were brought to room temperature. […] [125I]cAMP binding to the SPA beads was determined by counting each plate for 2 minutes on a Packard TopCount™. […]

EC50 (MC-4 receptor) [nM] | Structure (SMILES) | MC1-R agonist activity compared with MC4-R agonist activity (MC-1 receptor)
< 500 | CCCCC(=O)NC1(C(=O)N[C@H](Cc2ccccc2)C(=O)N[C@@H](CCCNC(=N)N)C(=O)N[C@@H](Cc2c[nH]c3ccccc23)C(=O)NCC(N)=O)CC=C(c2ccccc2)CC1 (single isomer, unassigned) [Penta-Ape-(D)Phe-Arg-Trp-Gly-NH2] | –
– | CCCC(=O)N[C@@H](Cc1c[nH]cn1)C(=O)N[C@H](Cc1ccccc1)C(=O)N[C@@H](CCCNC(=N)N)C(=O)N[C@@H](Cc1c[nH]c2ccccc12)C(=O)NCC(N)=O [Example 30, Bu-His-(D)Phe-Arg-Trp-Gly-NH2] (Butyryl-H[dF]RWG-NH2) | greater MC1-R agonist activity than MC4-R agonist activity
